Experimental data taken from US20150174145A1, “Pharmaceutical compounds with the structure of ionic salts with antibiotic and anticancer action” (priority 2013, published 2015).
Read-outs that look alike come from different tables or passages of the source.

Legend:
E. coli ATCC 25922 = experiment: Minimum inhibitory concentration, ampicillin sensitive strains; format: cell-based, Escherichia coli; conditions: for Minimum inhibitory concentrations: E. coli ATCC 25922, Gram-negative, ampicillin sensitive
Method: (§1) Each one of the 24 combinations of the ionic liquids were tested with following 9 bacteria: • Escherichia coli ATCC25922 • Staphylococcus aureus ATCC25923 • Klebsiella pneumonia • Staphylococcus epidermidis • Enterococcus fecalis • E. coli Tem CTXM9 • E. coli CTXM2 • E. coli AmpCMox2 • Saccharomyces cerevisiae PYCC 4072
(§2) These bacteria were tested in Vitek2 systems from bioMérieux. Bacteria were grown on Trypticase soy agar for 24 hours at 37° C. prior to each test. The bacteria assays were made in Tryptic Soy Broth.

K. pneumoniae = experiment: as above; format: cell-based, Klebsiella pneumonia; conditions: for Minimum inhibitory concentrations: K. pneumoniae, Gram-negative, ampicillin sensitive
Method: as §1, §2

S. aureus ATCC 25923 = experiment: as above; format: cell-based, Staphylococcus aureus; conditions: for Minimum inhibitory concentrations: S. aureus ATCC 25923, Gram-positive, ampicillin sensitive
Method: as §1, §2

E. fecalis = experiment: as above; format: cell-based, Enterococcus fecalis; conditions: for Minimum inhibitory concentrations: E. fecalis, Gram-positive, ampicillin sensitive
Method: as §1, §2

S. epidermis = experiment: as above; format: cell-based, Staphylococcus epidermidis; conditions: for Minimum inhibitory concentrations: S. epidermis, Gram-positive, ampicillin sensitive
Method: as §1, §2

E. coli CTX M2 = experiment: Minimum inhibitory concentration, ampicillin resistant strains; format: cell-based; conditions: for Minimum inhibitory concentrations: E. coli CTX M2, ampicillin resistant
Method: as §1, §2

E. coli TEM CTX M9 = experiment: as above; format: cell-based; conditions: for Minimum inhibitory concentrations: E. coli TEM CTX M9, ampicillin resistant
Method: as §1, §2

E. coli AmpC MOX2 = experiment: microbe, parasite or virus in culture; format: cell-based; conditions: for Minimum inhibitory concentrations: E. coli AmpC MOX2, ampicillin resistant
Method: as §1, §2

SF (skin fibroblasts) = experiment: MTT cellular viability/proliferation, primary human cells; format: cell-based; conditions: MTT assay
Method: (§3) At about 70-80% confluence, cells were enzymatically detached with 0.05% trypsin and 0.5 mM EDTA and seeded at 10^4 cells cm^−2.
(§4) After an attachment period of 24 hours, the culture medium was renewed, and supplemented with different concentrations (0.005-500 mM) of the ampicillin derived ionic liquid. Cell cultures were maintained in a 5% CO2 humidified atmosphere at 37° C.
(§5) Cellular viability/proliferation was assessed by the MTT assay at days 1, 3 and 5 of the culture. This assay is based on the reduction of 3-(4,5-dimethylthiazol-2-yl)-2,5-diphenyltetrazolium bromide (MTT) to a purple formazan product by viable cells.
(§6) Shortly, cultured cells were incubated at 37° C. with 0.5 mg ml −1 of MTT for 4 hours. The culture medium was then removed; the stained product dissolved with dimethylsulfoxide, and absorbance determined at 550 nm in an ELISA plate rewader. Results were expressed as absorbance per cm2.
(§7) The values of the […] (IC50) and the median lethal dose (LD50) were obtained from nonlinear regression analysis of concentration effect curves using the GGraphPad Prism Software.
(§8) It is used to measure the efficacy of a compound in inhibiting any biochemical or biological function.

[1] = tested on: HepG2 (hepatocellular liver carcinoma cell); experiment: MTT cellular viability/proliferation, cancer cell lines; format: cell-based, human; conditions: HepG2, MTT assay
Method: as §3, §4, §5, §6, §7, §8

[2] = tested on: MG63 (osteosarcoma cell line); experiment: as above; format: cell-based, human; conditions: MG63, MTT assay
Method: as §3, §4, §5, §6, §7, §8

[3] = tested on: PC3 (prostate cancer cell line); experiment: as above; format: cell-based, human; conditions: PC3, MTT assay
Method: as §3, §4, §5, §6, §7, §8

[4] = tested on: RKO (colon cancer cell line); experiment: as above; format: cell-based, human; conditions: MTT assay
Method: as §3, §4, §5, §6, §7, §8

[5] = tested on: T47D (ductal breast epithelial tumour cell line); experiment: cells; format: cell-based
Method: as §3, §4, §5, §6, §7, §8

[6] = tested on: gingival fibroblasts (GF); experiment: MTT cellular viability/proliferation, primary human cells; format: cell-based; conditions: MTT assay
Method: as §3, §4, §5, §6, §7, §8

SMILES	Minimum inhibitory concentrations (E. coli ATCC 25922) [mM]	Minimum inhibitory concentrations (K. pneumoniae) [mM]	Minimum inhibitory concentrations (S. aureus ATCC 25923) [mM]	Minimum inhibitory concentrations (E. fecalis) [mM]	Minimum inhibitory concentrations (S. epidermis) [mM]	Minimum inhibitory concentrations (E. coli CTX M2) [mM]	Minimum inhibitory concentrations (E. coli TEM CTX M9) [mM]	Minimum inhibitory concentrations (E. coli AmpC MOX2) [mM]	IC50 [2] [nM]	IC50 [3] [µM]	IC50 [4] [nM]	IC50 [6] [nM]	further results
CC1(C)S[C@@H]2[C@H](NC(=O)[C@H](N)c3ccccc3)C(=O)N2[C@H]1C(=O)[O-].C[N+](C)(C)CCO [[Cholin][Amp]]	>5	>5	>5	>5	>5	>5	>5	>5	17	0.982	–	–	IC50 (SF (skin fibroblasts)): 48.5 µM; IC50 [1]: 1620 nM
CC1(C)S[C@@H]2[C@H](NC(=O)[C@H](N)c3ccccc3)C(=O)N2[C@H]1C(=O)[O-].CC[N+](CC)(CC)CC [[TEA][Amp], tetraethyl ammonium salt of Ampicillin]	>5	>5	>5	>5	>5	>5	>5	>5	30	35.6	56700	–	IC50 [5]: 42 nM
CC1(C)S[C@@H]2[C@H](NC(=O)[C@H](N)c3ccccc3)C(=O)N2[C@H]1C(=O)[O-].[Na+] [[Na][Amp]] [sodium ampicillin]	0.05	2.5	0.005	0.05	0.05	>5	>5	>5	–	0.597	2410	109000	–
CCCCCCCCCCCCCC[P+](CCCCCC)(CCCCCC)CCCCCC.[Cl-] [[P6,6,6,14][Cl]]	2.5	2.5	2.5	>5	2.5	5	2.5	>5	–	–	–	–	–
CCn1cc[n+](C)c1.[Br-] [[EMIM][Br]]	>5	>5	0.05	>5	5	>5	5	>5	–	–	–	–	–
CC1(C)S[C@@H]2[C@H](NC(=O)[C@H](N)c3ccccc3)C(=O)N2[C@H]1C(=O)[O-].C[n+]1ccn(CCO)c1 [[C2OHMIM][Amp]]	5	>5	>5	5	2.5	>5	>5	5	738	–	359	462	IC50 (SF (skin fibroblasts)): 5.08 µM; IC50 [1]: 319 nM; IC50 ([5]; T47D, MTT assay): 146 nM
CC1(C)S[C@@H]2[C@H](NC(=O)[C@H](N)c3ccccc3)C(=O)N2[C@H]1C(=O)[O-].CCCCCCCCCCCCCCCC[n+]1ccccc1 [[C16Pyr][Amp]]	0.5	0.05	0.005	0.005	0.005	0.05	0.005	>5	11	–	226	12	IC50 (SF (skin fibroblasts)): 0.032 µM; IC50 ([5]; T47D, MTT assay): 5 nM
C[N+](C)(C)CCO.[Cl-] [[Cholin][Cl]]	>5	>5	2.5	>5	>5	>5	>5	>5	–	–	–	–	–
CCCCCCCCCCCCCCCC[n+]1ccccc1.[Cl-] [[C16Pyr][Cl]]	0.5	2.5	0.5	0.5	2.5	>5	0.5	>5	–	–	–	–	–
C[n+]1ccn(CCO)c1.[Cl-] [[C2OHMIM][Cl]]	5	>5	>5	5	5	2.5	>5	5	–	–	–	–	–
CC[N+](CC)(CC)CC [[TEA][Br], Tetraethylammonium bromide]	–	–	–	–	–	–	–	–	–	–	–	–	MIC (E. coli ATCC 25922; Escherichia coli, ATCC25922, read-out: Minimum inhibitory concentrations): > 5 mM; MIC (K. pneumoniae; Klebsiella pneumoniae, read-out: Minimum inhibitory concentrations): > 5 mM; MIC (S. aureus ATCC 25923; Staphylococcus aureus, ATCC25923, read-out: Minimum inhibitory concentrations): 2500 µM; MIC (E. fecalis; Enterococcus, read-out: Minimum inhibitory concentrations): > 5 mM; MIC (S. epidermis; Staphylococcus epidermidis, read-out: Minimum inhibitory concentrations): > 5 mM; MIC (E. coli CTX M2; Escherichia coli, CTXM2, read-out: Minimum inhibitory concentrations): 2500 µM; MIC (E. coli TEM CTX M9; Escherichia coli, read-out: Minimum inhibitory concentrations): > 5 mM; MIC (E. coli AmpC MOX2; Escherichia coli, AMPCMOX2, read-out: Minimum inhibitory concentrations, E. coli AmpC MOX2, ampicillin resistant): > 5 mM
CC1(C)S[C@@H]2[C@H](NC(=O)[C@H](N)c3ccccc3)C(=O)N2[C@H]1C(=O)[O-].CC[n+]1ccn(C)c1 [[EMIM][Amp]]	>5	>5	>5	>5	>5	>5	>5	>5	–	30	269	853	–
